Experimental data from ChEMBL document CHEMBL1121463, “N-Acetyl-[2-(O-methyl)tyrosine]arginine-vasopressin, an interesting antagonist of the vasopressor response to vasopressin” (J Med Chem, 1980).
Values belong to the compound of their own block, whether it stands above or below them. Where a SMILES comes first, the peptide text is derived from it. Bridges are numbered along the chain shown (N, C = ends).

Assays:
Rattus norvegicus [1] = species: Rattus norvegicus; test: Tested for anti-oxytocic activity against isolated rat uterus; format: functional; conditions: read-out: pA2 (converted)
Rattus norvegicus [2] = species: Rattus norvegicus; test: Tested for antidiuretic activity against rats; format: functional, Urine
Rattus norvegicus [3] = species: Rattus norvegicus; test: The anti-oxytocic pA2 value (antagonistic) of compound was tested on isolated rat uterus (with the 0.5 mM Mg+2); format: functional; conditions: read-out: pA2 (converted)
Rattus norvegicus [4] = species: Rattus norvegicus; test: Compound was tested for antidiuretic activity in rats; format: ADME, organism-based, Urine; conditions: in vivo
Rattus norvegicus [5] = species: Rattus norvegicus; test: The vasopressor value (agonistic) of compound was tested on rat […]; format: functional
Rattus norvegicus [6] = species: Rattus norvegicus; test: Compound was tested for anti-vasopressor activity against rat; format: functional, organism-based; conditions: read-out: pA2 (converted)
Rattus norvegicus [7] = species: Rattus norvegicus; test: Tested for anti-oxytocic activity against isolated rat uterus; Showed both agonistic and antagonistic activities; format: functional
Rattus norvegicus [8] = species: Rattus norvegicus; test: Compound was tested for anti-vasopressor activity against rat; Weak; format: functional, organism-based
Rattus norvegicus [9] = species: Rattus norvegicus; test: Compound was tested for anti-vasopressor activity against rat; Inhibitor; format: functional, organism-based

Structure (SMILES): CC[C@H](C)[C@@H]1NC(=O)[C@H](Cc2ccc(OC)cc2)NC(=O)[C@@H](NC(=O)CNC)CSSC[C@@H](C(=O)N2CCC[C@H]2C(=O)N[C@@H](CC(C)C)C(=O)NCC(N)=O)NC(=O)[C@H](CC(N)=O)NC(=O)[C@H](CCC(N)=O)NC1=O
Kb (Rattus norvegicus [1]): 0.302 µM

Structure (SMILES): COc1ccc(C[C@@H]2NC(=O)[C@@H](NC(C)=O)CSSC[C@@H](C(=O)N3CCC[C@H]3C(=O)N[C@@H](CCCN=C(N)N)C(=O)NCC(N)=O)NC(=O)[C@H](CC(N)=O)NC(=O)[C@H](CCC(N)=O)NC(=O)[C@H](Cc3ccccc3)NC2=O)cc1 [listing 1 of 2 here]
Antidiuretic (Rattus norvegicus [2]): 0.026 U/mg

Structure (SMILES): COc1ccc(C[C@@H]2NC(=O)[C@@H](N)CSSC[C@@H](C(=O)N3CCC[C@H]3C(=O)N[C@@H](CCCN=C(N)N)C(=O)NCC(N)=O)NC(=O)[C@H](CC(N)=O)NC(=O)[C@H](CCC(N)=O)NC(=O)[C@H](Cc3ccccc3)NC2=O)cc1 [listing 1 of 2 here]
Kb (Rattus norvegicus [1]): 0.0363 µM | Kb (Rattus norvegicus [3]): 0.457 µM

Antidiuretic (Rattus norvegicus [4]): 4 U/mg
Structure (SMILES): CC[C@H](C)[C@@H]1NC(=O)[C@H](Cc2ccc(O)cc2)NC(=O)[C@@H](N)CSSC[C@@H](C(=O)N2CCC[C@H]2C(=O)N[C@@H](CC(C)C)C(=O)NCC(N)=O)NC(=O)[C@H](CC(N)=O)NC(=O)[C@H](CCC(N)=O)NC1=O [OXYTOCIN]

Structure (SMILES): COc1ccc(C[C@@H]2NC(=O)[C@@H](N)CSSC[C@@H](C(=O)N3CCC[C@H]3C(=O)N[C@@H](CCCN=C(N)N)C(=O)NCC(N)=O)NC(=O)[C@H](CC(N)=O)NC(=O)[C@H](CCC(N)=O)NC(=O)[C@H](Cc3ccccc3)NC2=O)cc1 [listing 2 of 2 here]
Vasopressor activity (Rattus norvegicus [5]): 9.7 units/mg | Antidiuretic (Rattus norvegicus [2]): 386 U/mg

Structure (SMILES): NC(=O)CC[C@@H]1NC(=O)[C@H](Cc2ccccc2)NC(=O)[C@H](Cc2ccc(O)cc2)NC(=O)[C@@H](N)CSSC[C@@H](C(=O)N2CCC[C@H]2C(=O)N[C@@H](CCCN=C(N)N)C(=O)NCC(N)=O)NC(=O)[C@H](CC(N)=O)NC1=O (stereo in doubt; form 2) [VASOPRESSIN]
Antidiuretic (Rattus norvegicus [4]): 212 U/mg

Structure (SMILES): CC[C@H](C)[C@@H]1NC(=O)[C@H](Cc2ccc(OC)cc2)NC(=O)[C@@H](NC(=O)CN)CSSC[C@@H](C(=O)N2CCC[C@H]2C(=O)N[C@@H](CC(C)C)C(=O)NCC(N)=O)NC(=O)[C@H](CC(N)=O)NC(=O)[C@H](CCC(N)=O)NC1=O (H-GCY(Me)IQNCPLG-NH2; disulfide 2-7)
Kb (Rattus norvegicus [1]): 0.141 µM

Structure (SMILES): CC[C@H](C)[C@@H]1NC(=O)[C@H](Cc2ccc(OC)cc2)NC(=O)[C@@H](NC(N)=O)CSSC[C@@H](C(=O)N2CCC[C@H]2C(=O)N[C@@H](CC(C)C)C(=O)NCC(N)=O)NC(=O)[C@H](CC(N)=O)NC(=O)[C@H](CCC(N)=O)NC1=O
Kb (Rattus norvegicus [1]): 0.0603 µM

Structure (SMILES): CC[C@H](C)[C@@H]1NC(=O)[C@H](Cc2ccc(OC)cc2)NC(=O)[C@@H](NC(C)=O)CSSC[C@@H](C(=O)N2CCC[C@H]2C(=O)N[C@@H](CC(C)C)C(=O)NCC(N)=O)NC(=O)[C@H](CC(N)=O)NC(=O)[C@H](CCC(N)=O)NC1=O
Kb (Rattus norvegicus [1]): 0.0263 µM

Structure (SMILES): COc1ccc(C[C@@H]2NC(=O)[C@@H](NC(C)=O)CSSC[C@@H](C(=O)N3CCC[C@H]3C(=O)N[C@@H](CCCN=C(N)N)C(=O)NCC(N)=O)NC(=O)[C@H](CC(N)=O)NC(=O)[C@H](CCC(N)=O)NC(=O)[C@H](Cc3ccccc3)NC2=O)cc1 [listing 2 of 2 here]
Kb (Rattus norvegicus [1]): 0.0513 µM | Kb (Rattus norvegicus [3]): 0.186 µM | Kb (Rattus norvegicus [6]): 0.0661 µM

Structure (SMILES): CC[C@H](C)[C@@H]1NC(=O)[C@@H](Cc2ccc(OC)cc2)NC(=O)[C@H](N)CSSC[C@@H](C(=O)N2CCC[C@@H]2C(=O)N[C@@H](CC(C)C)C(=O)NCC(N)=O)NC(=O)[C@H](CC(N)=O)NC(=O)[C@@H](CCC(N)=O)NC1=O
pA2 (Rattus norvegicus [7]): Mixed | pA2 (Rattus norvegicus [8]): Weak

Structure (SMILES): CC[C@H](C)[C@@H]1NC(=O)[C@@H](Cc2ccc(OC)cc2)NC(=O)[C@H](NC(C)=O)CSSC[C@@H](C(=O)N2CCC[C@@H]2C(=O)N[C@@H](CC(C)C)C(=O)NCC(N)=O)NC(=O)[C@H](CC(N)=O)NC(=O)[C@@H](CCC(N)=O)NC1=O
pA2 (Rattus norvegicus [9]): Inhibition

Structure (SMILES): CC[C@H](C)[C@@H]1NC(=O)[C@H](Cc2ccc(OC)cc2)NC(=O)[C@@H](N)CSSC[C@@H](C(=O)N2CCC[C@H]2C(=O)N[C@@H](CC(C)C)C(=O)NCC(N)=O)NC(=O)[C@H](CC(N)=O)NC(=O)[C@H](CCC(N)=O)NC1=O
Antidiuretic (Rattus norvegicus [2]): 0.01 U/mg

Structure (SMILES): CC[C@H](C)[C@@H]1NC(=O)[C@@H](Cc2ccc(OC)cc2)NC(=O)[C@H](NC(N)=O)CSSC[C@@H](C(=O)N2CCC[C@@H]2C(=O)N[C@@H](CC(C)C)C(=O)NCC(N)=O)NC(=O)[C@H](CC(N)=O)NC(=O)[C@@H](CCC(N)=O)NC1=O
pA2 (Rattus norvegicus [9]): Inhibition

Structure (SMILES): NC(=O)CC[C@@H]1NC(=O)[C@H](Cc2ccccc2)NC(=O)[C@H](Cc2ccc(O)cc2)NC(=O)[C@@H](N)CSSC[C@@H](C(=O)N2CCC[C@H]2C(=O)N[C@@H](CCCN=C(N)N)C(=O)NCC(N)=O)NC(=O)[C@H](CC(N)=O)NC1=O (stereo in doubt; form 1) [VASOPRESSIN]
Antidiuretic (Rattus norvegicus [4]): 323 U/mg
